Reference: US20250326777A1, “COMPOUNDS, COMPOSITIONS AND METHODS THEREOF” (HEPAITECH (BEIJING) BIOPHARMA TECHNOLOGY CO., LTD., priority 2022, published 2025)

Target: T1, human MRGPRX4 (Homo sapiens, UniProt Q96LA9)
T1 construct: expressed in transfected cells
Experiment: MRGPRX4 antagonist calcium (FLIPR, Fluo-8) assay in HEK293T cells stably expressing human MRGPRX4, agonist 0.2 μM deoxycholic acid-3-phosphoric acid
Type: cell-based
Conditions: for IC50 / inhibition at 0.5 µM: HEK293T cells stably expressing human MRGPRX4; for IC50: antagonist mode, top conc. 30 μM, ten 3-fold serial dilutions, C may also mean <40% inhibition at 2 μM, read-out: Antagonist activity (IC50 class); for inhibition at 0.5 µM: HEK-293T, single concentration 0.5 μM
Description: HEK293T cells stably expressing human MRGPRX4 were cultured in DMEM medium supplements with 10% FBS, 100 U/mL penicillin-streptomycin, 20 mM HEPES and 1 μg/mL puromycin at 37° C. with 5% (v/v) CO2. One day before test, the cells were detached using TrypLE™ Express and counted using cell counter. In a 384-well plate cells were seeded at a density of 20,000 cells/well in 20 uL/well planting medium (DMEM medium supplements with 5% FBS, 100 U/mL penicillin-streptomycin and 20 mM HEPES), and incubated overnight at 37° C. with 5% (v/v) CO2. On the day of experiments, the dye solution, prepared following the manufacture's instruction of the Screen Quest™ Fluo-8 No Wash Calcium Assay Kit, was added to each well (20 μL/well) of the cell plate. The cell plate was incubated at 25° C. for 1 hour. Test compounds in different doses were transferred to the cell plate by FLIPR and the plate was kept in the dark at 25° C. for 30 minutes. The agonist solution, 0.2 μM of deoxycholic acid-3-phosphoric acid in assay buffer, was added to each well of the plate. The plate was read for 160 sec with 1 sec interval to obtain data of antagonist mode in FLIPR. For various compounds, IC50 values were calculated by fitting % inhibition against log of compound concentrations (top conc. 30 μM, ten 3-fold serial dilutions) with Hill equation using XLfit. […] Those skilled in the art appreciate that IC50 of various compounds can be assessed in accordance with the present disclosure.

T1 sequence (Q96LA9 whole entry): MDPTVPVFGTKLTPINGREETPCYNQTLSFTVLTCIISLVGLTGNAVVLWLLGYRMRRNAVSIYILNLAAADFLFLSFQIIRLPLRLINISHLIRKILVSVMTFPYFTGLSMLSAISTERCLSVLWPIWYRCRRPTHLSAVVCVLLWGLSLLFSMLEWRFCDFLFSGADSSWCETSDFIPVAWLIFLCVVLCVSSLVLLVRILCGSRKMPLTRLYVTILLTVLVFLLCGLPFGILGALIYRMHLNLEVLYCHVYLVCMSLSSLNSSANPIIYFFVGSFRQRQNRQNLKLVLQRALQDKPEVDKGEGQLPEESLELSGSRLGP

SMILES	IC50	further results
Cn1c(-c2ccc(C(=O)O)cc2)cc2c(Cl)cc(C(F)(F)F)cc21 [Example 13]	1 to 10 µM	–
Cn1c(-c2cccc(C(=O)O)c2)cc2ccc(C(F)(F)F)cc21 [Example 4]	> 10 µM	–
CC(C)Cn1c(-c2ccc(C(=O)O)cc2)cc2ccc(C(F)(F)F)cc21 [Example 17]	1 to 10 µM	–
Cc1cc(-c2nnn[nH]2)c(F)c(C2Cc3cc(C(F)(F)F)ccc3O2)c1 (stereo not drawn) [Compound 99]	< 1 µM	–
Cn1c(-c2ccc(C(=O)O)cc2)cc2cc(C(F)(F)F)ccc21 [Example 15]	1 to 10 µM	–
O=C(O)c1ccc(-c2cc3ccc(C(F)(F)F)cc3n2C2CCCC2)cc1F [Example 31]	1 to 10 µM	–
CC(C)n1c(-c2ccc(C(=O)O)cc2)cc2c(Cl)cc(C(F)(F)F)cc21 [Example 33]	> 10 µM	–
O=C(O)c1cc(Cl)cc(C2Cc3cc(C(F)(F)F)ccc3O2)c1 (stereo not drawn) [Example 62]	1 to 10 µM	–
Fc1c(-c2nnn[nH]2)cccc1C1Cc2cc(OC(F)(F)F)ccc2O1 (stereo not drawn) [Compound 96]	–	inhibition at 0.5 µM: 3.7%
O=C(O)c1cccc([C@H]2Cc3cc(C(F)(F)F)ccc3O2)c1F [Compound 52B]	> 10 µM	–
Cn1c(-c2ccc(C(=O)O)cc2)cc2ccc(C(F)(F)F)cc21 [Example 1]	1 to 10 µM	–
Cc1c(-c2ccc(C(=O)O)cc2)n(C)c2cc(C(F)(F)F)ccc12 [Example 39]	> 10 µM	–
O=C(O)c1ccc(-c2[nH]c3cc(C(F)(F)F)ccc3c2F)cc1 [Example 38]	> 10 µM	–
Fc1c(-c2nnn[nH]2)cccc1[C@@H]1Cc2cc(C(F)(F)F)ccc2O1 [Compound 88]	< 1 µM	–
O=C(O)c1ccc(-c2cc3ccc(C(F)(F)F)cc3n2Cc2ccccc2)cc1 [Example 26]	> 10 µM	–
CCCn1c(-c2ccc(C(=O)O)cc2)cc2ccc(S(C)(=O)=O)cc21 [Example 24]	> 10 µM	–
O=c1[nH]c(-c2cccc([C@@H]3Cc4cc(C(F)(F)F)ccc4O3)c2F)no1 [Compound 105]	< 1 µM	–
O=C(O)c1cccc(C2Cc3cc(C(F)(F)F)ccc3O2)c1F (stereo not drawn) [Example 52]	< 1 µM	–
Fc1c(-c2nnn[nH]2)cccc1C1Cc2c(ccc3ccccc23)O1 (stereo not drawn) [Compound 92]	< 1 µM	–

SMILES	IC50	further results
Cn1c(-c2ccc(P(=O)(O)O)cc2)cc2ccc(C(F)(F)F)cc21 [Example 71]	> 10 µM	–
O=C(O)c1ccc(C2Cc3cc(C(F)(F)F)ccc3O2)cc1 (stereo not drawn) [Example 61]	> 10 µM	–
O=C(O)c1cc(F)cc(-c2nc3cc(C(F)(F)F)c(Cl)cc3o2)c1 [Example 46]	> 10 µM	–
COc1ccc2cc(-c3ccc(C(=O)O)cc3)n(C)c2c1 [Example 10]	> 10 µM	–
CCCn1c(-c2ccc(C(=O)O)cc2F)cc2ccc(C(F)(F)F)cc21 [Example 18]	< 1 µM	–
CC1(c2cccc(C(=O)O)c2F)Cc2cc(C(F)(F)F)ccc2O1 (stereo not drawn) [Example 86]	1 to 10 µM	–
Cn1c(-c2ccc(C(=O)O)cc2)cc2cc(Cl)c(Cl)cc21 [Example 12]	> 10 µM	–
O=C(O)c1cccc(C2Cc3cc(F)c(F)cc3O2)c1F (stereo not drawn) [Example 81]	> 10 µM	–
Cn1cc(-c2cc(C(=O)O)cc(C3Cc4cc(C(F)(F)F)ccc4O3)c2)cn1 (stereo not drawn) [Example 69]	> 10 µM	–
Cn1c(-c2ccc(C(=O)O)cc2)cc2ccc(C(=O)O)cc21 [Example 9]	> 10 µM	–
Cn1c(-c2ccc(C(=O)O)cc2F)cc2ccc(C(F)(F)F)cc21 [Example 14]	1 to 10 µM	–
O=C(O)c1cccc(C2Cc3cccc(C(F)(F)F)c3O2)c1F (stereo not drawn) [Example 83]	> 10 µM	–
O=C(O)c1cc(-c2ccccc2)cc(C2Cc3cc(C(F)(F)F)ccc3O2)c1 (stereo not drawn) [Example 64]	> 10 µM	–
O=C(O)c1cccc([C@@H]2Cc3cc(C(F)(F)F)ccc3O2)c1F [Compound 52A]	< 1 µM	MRGPRX4 inhibition activity, comparison of enantiomers (S enantiomer 52A versus 52B, see Table 1): much higher MRGPRX4 inhibition activity than 52B
CCOP(=O)(O)c1ccc(-c2cc3ccc(C(F)(F)F)cc3n2C)cc1 [Example 72]	> 10 µM	–
CC(C)n1c(-c2ccc(C(=O)O)cc2)cc2cc(Cl)c(Cl)cc21 [Example 11]	> 10 µM	–
FC(F)(F)c1ccc2c(c1)CC(c1cc(-c3nnn[nH]3)cc(C3CC3)c1)O2 (stereo not drawn) [Compound 90]	–	inhibition at 0.5 µM: 27%
FC(F)(F)c1ccc2c(c1)CC(c1cccc(-c3nnn[nH]3)c1)O2 (stereo not drawn) [Compound 93]	–	inhibition at 0.5 µM: 24%
O=C(O)c1ccc(-c2cc3ccc(C(F)(F)F)cc3n2C2CCCC2)c(F)c1 [Example 30]	< 1 µM	–
